Experiment: Circular dichroism (CD) spectroscopy of peptide assemblies
Assay type: physicochemical
Details: 100 µM, aqueous, 0.5 mm path
Protocol: CD spectra of the peptide assemblies in aqueous solutions were recorded under the nitrogen atmosphere using a spectrophotometer JASCO J-820 (Jasco, Japan). A quartz cuvette with 0.5 mm path length was used as a sample container. Continuous scanning mode is applied. And each sample is scanned three times to obtain an averaged spectrum.

secondary structure of self-assembly	Substance
β-sheet structure	FFIKLLI [candidate assembling ligand, FF coupled to N-terminus of IKLLI]
random coil structure	FIKLLI [candidate assembling ligand, F coupled to N-terminus of IKLLI]
